As usually defined, the Km is the concentration of substrate that gives half-maximal velocity.

The source of these data is article PMC4857387, “The Arabidopsis NPF3 protein is a GA transporter” (Nature Communications, 2016).

For one data set, the target named is T1, NPF4.1 (AIT3) (Arabidopsis thaliana, UniProt Q9LSF0).
T1 sequence (Q9LSF0 1-515): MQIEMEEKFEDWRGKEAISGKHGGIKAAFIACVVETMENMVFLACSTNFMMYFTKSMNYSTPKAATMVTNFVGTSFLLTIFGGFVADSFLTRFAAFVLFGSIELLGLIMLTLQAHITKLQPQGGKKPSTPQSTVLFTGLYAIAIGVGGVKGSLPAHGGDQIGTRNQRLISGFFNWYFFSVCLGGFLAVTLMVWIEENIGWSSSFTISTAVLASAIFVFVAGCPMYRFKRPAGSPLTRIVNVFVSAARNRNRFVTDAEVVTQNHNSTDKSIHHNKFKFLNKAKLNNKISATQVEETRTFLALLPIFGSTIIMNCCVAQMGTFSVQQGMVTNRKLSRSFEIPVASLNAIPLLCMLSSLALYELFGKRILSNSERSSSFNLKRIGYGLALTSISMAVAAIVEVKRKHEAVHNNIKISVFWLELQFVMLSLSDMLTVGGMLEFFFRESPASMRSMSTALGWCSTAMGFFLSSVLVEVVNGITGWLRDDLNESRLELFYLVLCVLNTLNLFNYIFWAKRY
Nature of the data set: competition of GA4 uptake in Xenopus oocytes, LC-MS. In kind it is cell-based. As to conditions: 300 uM GA4 with 5 mM JA-Ile.

Substrate in data set [1]: C=C1C[C@]23C[C@H]1CC[C@H]2[C@@]12CC[C@H](O)[C@@](C)(C(=O)O1)[C@H]2[C@@H]3C(=O)O
Nature of the data set: uptake into Xenopus oocytes, LC-MS. In kind it is cell-based, Arabidopsis thaliana. As to conditions: pH 5, 60 min incubation, diffusion into non-injected oocytes subtracted, judged by authors a likely overestimation.

In the case of `CC/C=C\C[C@H]1C(=O)CC[C@@H]1CC(=O)N[C@H](C(=O)O)[C@@H](C)CC` [JA-Ile], the “inhibition of GA4 uptake at 5 mM” value on NPF4.1 (AIT3) is listed as “JA-Ile strongly inhibited GA4 uptake”.

B1: NPF3 (NPF3.1, AtNPF3.1) (Arabidopsis thaliana) (protein)
chain: MEEQSKNKISEEEKQLHGRPNRPKGGLITMPFIFANEICEKLAVVGFHANMISYLTTQLHLPLTKAANTLTNFAGTSSLTPLLGAFIADSFAGRFWTITFASIIYQIGMTLLTISAIIPTLRPPPCKGEEVCVVADTAQLSILYVALLLGALGSGGIRPCVVAFGADQFDESDPNQTTKTWNYFNWYYFCMGAAVLLAVTVLVWIQDNVGWGLGLGIPTVAMFLSVIAFVGGFQLYRHLVPAGSPFTRLIQVGVAAFRKRKLRMVSDPSLLYFNDEIDAPISLGGKLTHTKHMSFLDKAAIVTEEDNLKPGQIPNHWRLSTVHRVEELKSVIRMGPIGASGILLITAYAQQGTFSLQQAKTMNRHLTNSFQIPAGSMSVFTTVAMLTTIIFYDRVFVKVARKFTGLERGITFLHRMGIGFVISIIATLVAGFVEVKRKSVAIEHGLLDKPHTIVPISFLWLIPQYGLHGVAEAFMSIGHLEFFYDQAPESMRSTATALFWMAISIGNYVSTLLVTLVHKFSAKPDGSNWLPDNNLNRGRLEYFYWLITVLQAVNLVYYLWCAKIYTYKPVQVHHSKEDSSPVKEELQLSNRSLVDE
notes: putative 12 transmembrane domains
Consider B1, for which, in data set [1], the Km is listed as 0.5 mM.
